Tests used:
[1] = system: Bax, Bcl-2, caspase-3, PARP in SMMC-7721 cells; assay: Western blot assay of apoptosis-related proteins; type: cell-based, human
Method: Next, to investigate the preliminarily molecular mechanisms underlying the cell apoptosis profiles in 8h-treated cells, we conducted western blot analysis to examine the expression of apoptosis proteins in SMMC-7721 cells. It is well known that Bcl-2 and Bax are anti-apoptotic or pro-apoptotic regulator proteins, respectively, and caspase-3 is the execution factor of apoptosis. In addition, PARP is one of several known cellular substrates for caspase-3 and the cleavage of PARP by caspase-3 is considered to be a hallmark of apoptosis.
Figure 5 Effect of 8h on the expression of apoptosis-related proteins in SMMC-7721 cells. (A) The expression of Bax, Bcl2, caspase 3 and β-actin was examined by western blot analysis. SMMC-7721 cells were incubated with, or without, 8h at the indicated concentrations for 48 h and the levels of protein expression were detected using specific antibodies, and β-actin was used as the control. Data shown are representative images of each protein for three separate experiments. (B) Quantitative analysis: the relative levels of each protein compared to control β-actin were determined by densimetric scanning. Data are expressed as means ± SD from three separate experiments. *P < 0.01 vs control.
The mechanisms of the cell apoptosis were determined by western blot assay. SMMC-7721 cells at 1.5 × 10^5/mL were treated with 3.5, 7.0, or 14 μM 8h or vehicle control for […]. After harvested and lyzed, the cell lysates (50 μg/lane) were separated by SDS-PAGE (12% gel) and transferred onto nitrocellulose membranes. After blocked with 5% fat-free milk, the target proteins were probed with anti-Bcl-2, anti-Bax, anti-caspase-3, anti-PARP, and anti-β-actin antibodies (Cell Signaling, Boston), respectively. The bound antibodies were detected by HRP-conjugated second antibodies and visualized using the enhanced chemiluminescent reagent.

HCT116 cells = assay: MTT assay, proliferation of HCT116 cells; type: cell-based; details: Homo sapiens, HCT-116, 48 h, read-out: In vitro cytotoxicity (IC50) HCT116
Method: (§1) The in vitro antitumor activities of the synthesized compounds 7a-l and 8a-l against five human cancer cells were evaluated in MTT assays using 5-fluorouracil (5-FU) and harmine as positive controls. These cells are human hepatocellular carcinoma cells (SMMC-7721 and Hep G2), human colon cancer cell lines (HCT116), human bladder carcinoma cells (EJ), and human lung cancer cells (H460).
(§2) Hepatocellular carcinoma cells (SMMC-7721 and Hep G2), Human colon cancer cell lines (HCT116), human bladder carcinoma cells (EJ) or human lung cancer cells (H460) at 10^4 cells per well were cultured in 10% FBS DMEM in 96-well flat-bottom microplates overnight. The cells were incubated in triplicate with, or without, different concentrations of each test compound for 48 h. During the last 4 h incubation, 30 μL of tetrazolium dye (MTT) solution (5 mg mL^−1) was added to each well. The resulting MTT-formazan crystals were dissolved in 150 μL DMSO, and absorbance was measured spectrophotometrically at 570 nm using an ELISA plate reader. The inhibition induced by each test compound at the indicated concentrations was expressed as a percentage. The concentration required for 50% inhibition (IC50) was calculated using the software (GraphPadPrism Version 4.03).

LO2 cells = assay: MTT assay, proliferation of normal liver LO2 cells; type: cell-based, human
Method: Given the strong growth inhibitory activity of 8h in vitro, it was profiled for antitumor selectivity by examining its inhibitory effects on the growth of SMMC-7721 cells and LO2 cells (human hepatocellular normal cells).
Figure 3 (A) Inhibitory effects of 8h on the proliferation of SMMC-7721 and LO2 cells. Cells were incubated with the indicated concentrations of 8h for 48 h. Cell proliferation was assessed using the MTT assay. Data are means ± SD of the inhibition (%) from three independent experiments. (B) Inhibitory effects of 5h, 8h, and SA or the vehicle control against SMMC-7721 and LO2 cells. SMMC-7721 and LO2 cells were incubated with the indicated compounds at 25 μM for 48 h, and cell proliferation was assessed by the MTT assay. Data are means ± SD of the inhibition (%) from three independent experiments. *P < 0.01 versus control of SMMC-7721, ^#P < 0.01 inhibitory effects of 8h in SMMC-7721 versus LO2 cells.
as §2

Hep G2 cells = assay: MTT assay, proliferation of Hep G2 cells; type: cell-based; details: Homo sapiens, HepG2, 48 h, read-out: In vitro cytotoxicity (IC50) Hep G2
Method: as §1, §2

[2] = system: human cancer cells (SMMC-7721, Hep G2, HCT116, EJ, H460); assay: MTT assay, summary statements across several human cancer cell lines; type: cell-based
Method: as §1, §2

SMMC-7721 cells = assay: MTT assay, proliferation of SMMC-7721 cells; type: cell-based, human; details: Homo sapiens
Method: as §1, §2

EJ cells = assay: MTT assay, proliferation of EJ cells; type: cell-based; details: 48 h, EJ human bladder carcinoma cells, read-out: In vitro cytotoxicity (IC50) EJ
Method: as §1, §2

[3] = western blot, 3.5, 7.0 or 14 μM

Compound: Cc1nc(C(=O)NCCCCCNC(=O)c2ccccc2O)cc2c1[nH]c1ccccc12 [8h, N-(5-(2-Hydroxybenzamido)pentyl)-1-methyl-9H-pyrido[3,4-b]indole-3-carboxamide]
- Expression of Bcl-2 [1, 3]: dramatically reduced in a concentration-dependent manner
- Protein levels of Bax [1, 3]: significantly increased
- Cleavage of PARP and caspase-3 ([1]; western blot, vs control group): more significant cleavage of both PARP and caspase-3 than the control group
- IC50 (HCT116 cells): 8.25 µM
- Inhibitory effect on LO2 cells (LO2 cells; 25 μM, 48 h, MTT assay): little inhibitory effects
- IC50 (LO2 cells; L02, MTT assay, 48 h, LO2 human hepatocellular normal cells, read-out: IC50 against liver normal LO2 cells): 55.2 µM
- Selectivity: IC50 on SMMC-7721 fold lower than against LO2 cells (LO2 cells; SMMC-7721 vs LO2): 9 fold
- Growth inhibitory activity on non-cancer LO2 cells (LO2 cells; concentrations up to 25 μM, 48 h, MTT): no apparent growth inhibitory activity
- IC50 (Hep G2 cells): 7.12 µM
- IC50 ([2]; Homo sapiens, SMMC-7721, Hep G2, HCT116, MTT, read-out: IC50 values for liver and colon cancer cells growth (range over cell lines)): 6.97 to 8.25 µM
- IC50 fold lower than that of 5-FU ([2]; liver and colon cancer cells): 4~6 fold
- IC50 (SMMC-7721 cells; SMMC-7721, 48 h, read-out: In vitro cytotoxicity (IC50) SMMC-7721, MTT assay, 48 h, SMMC-7721 human hepatocellular carcinoma cells): 6.97 µM
- inhibition at 25 µM (SMMC-7721 cells; SMMC-7721, 25 μM, 48 h, MTT assay, read-out: Inhibition of SMMC-7721 cell proliferation): ~90%
- IC50 (EJ cells): 7.89 µM
